Data reported in DBAASP.
Converted amounts (≈) assume the structure as drawn. “And” between values parts separate entries of the source, which are not always exact repeats. Identical values can stand only once. One block for each compound: values may come before it.

Experiments:
Experiment in all cases: ≥ marks a high value that may be exact or a test limit, other limits are often not marked, values filed in µg/mL are converted to µM
[1] = tested on: Candida albicans ATCC 90028
[2] = tested on: Escherichia coli ATCC 25922
[3] = tested on: Pseudomonas aeruginosa ATCC 27853
[4] = tested on: Staphylococcus aureus ATCC 29213
[5] = tested on: Candida albicans
[6] = tested on: Escherichia coli
[7] = tested on: Staphylococcus aureus
[8] = tested on: Enterococcus faecalis ATCC 29212
[9] = tested on: Pseudomonas aeruginosa
[10] = tested on: Pseudomonas aeruginosa PAO1
[11] = tested on: Bacillus subtilis
[12] = tested on: Staphylococcus epidermidis
[13] = tested on: Salmonella enterica subsp. enterica serovar Typhimurium ATCC 14028

MIC [1]: 20 µM (≈ 30.3 µg/mL)
MIC [2]: 5 µM (≈ 7.57 µg/mL)
MIC [3]: 5 µM (≈ 7.57 µg/mL)
MIC [4]: 20 µM (≈ 30.3 µg/mL)
Structure (SMILES): CC[C@H](C)[C@H](NC(=O)[C@H](CCCN=C(N)N)NC(=O)[C@H](C)NC(=O)[C@@H](NC(=O)[C@@H](NC(=O)[C@H](CCCN=C(N)N)NC(=O)[C@@H](N)CCCCN)[C@@H](C)CC)C(C)C)C(=O)N[C@@H](CCCCN)C(=O)N[C@@H](CC(=O)O)C(=O)N[C@@H](Cc1ccccc1)C(=O)N[C@@H](CC(C)C)C(=O)N[C@@H](CCCN=C(N)N)C(=O)O [KRIVARIKDFLR]

MIC [5]: 3.78 µM (≈ 8 µg/mL)
MIC [6]: 15.1 µM (≈ 32 µg/mL)
MIC [7]: 3.78 µM (≈ 8 µg/mL)
Structure (SMILES): CC[C@H](C)[C@H](NC(=O)[C@H](CC(=O)O)NC(=O)[C@H](CC(C)C)NC(=O)[C@H](Cc1ccccc1)NC(=O)CN)C(=O)N[C@H](C(=O)N[C@@H](CCCCN)C(=O)NCC(=O)N[C@H](C(=O)NCC(=O)N[C@@H](CCCCN)C(=O)N[C@H](C(=O)N[C@@H](C)C(=O)N[C@@H](CC(C)C)C(=O)NCC(=O)N[C@@H](C)C(=O)N[C@H](C(=O)N[C@@H](CO)C(=O)N[C@@H](CCCCN)C(=O)N[C@@H](CC(C)C)C(=O)N[C@@H](Cc1ccccc1)C(N)=O)C(C)C)C(C)C)C(C)C)C(C)C [GFLDIVKGVGKVALGAVSKLF]

MIC [8]: 145 µM (≈ 200 µg/mL)
MIC [2]: 145 µM (≈ 200 µg/mL)
Structure (SMILES): CSCC[C@H](NC(=O)[C@H](CCCN=C(N)N)NC(=O)[C@H](Cc1c[nH]c2ccccc12)NC(=O)[C@H](CCC(N)=O)NC(=O)[C@H](Cc1c[nH]c2ccccc12)NC(=O)[C@H](CC(C)C)NC(=O)[C@H](CC(C)C)NC(=O)[C@H](C)NC(=O)[C@H](CCCCN)NC(=O)[C@@H](N)Cc1ccccc1)C(=O)O [FKALLWQWRM]

MIC [5]: 100 µM (≈ 254 µg/mL)
MIC [6]: 20 µM (≈ 50.9 µg/mL)
MIC [7]: 100 µM (≈ 254 µg/mL)
Structure (SMILES): CC[C@H](C)[C@H](NC(=O)[C@H](CCCCN)NC(=O)[C@H](C)NC(=O)[C@H](C)NC(=O)[C@@H](NC(=O)[C@H](Cc1ccccc1)NC(=O)CNC(=O)[C@H](CC(C)C)NC(=O)CNC(=O)[C@@H](NC(=O)[C@H](CCCCN)NC(=O)CNC(=O)[C@H](CC(C)C)NC(=O)[C@H](CC(N)=O)NC(=O)[C@H](CCCCN)NC(=O)[C@H](CC(C)C)NC(=O)[C@@H](NC(=O)[C@H](CO)NC(=O)[C@H](CC(C)C)NC(=O)[C@H](CCSC)NC(=O)[C@@H](N)CO)C(C)C)C(C)C)C(C)C)C(=O)N[C@@H](C)C(=O)N[C@@H](CCCCN)C(=O)N[C@@H](CCC(N)=O)C(=O)N[C@@H](C)C(=O)O [SMLSVLKNLGKVGLGFVAAKIAKQA]

MIC [6]: 6.2 µM (≈ 12.1 µg/mL)
MIC [9]: 12.4 µM (≈ 24.2 µg/mL)
MIC [7]: 1.6 µM (≈ 3.12 µg/mL)
Structure (SMILES): CC(C)C[C@H](NC(=O)[C@H](C)NC(=O)[C@H](CCCCN)NC(=O)[C@H](CC(C)C)NC(=O)[C@H](CC(C)C)NC(=O)[C@H](Cc1c[nH]c2ccccc12)NC(=O)[C@H](CCCCN)NC(=O)[C@H](CC(C)C)NC(=O)[C@H](C)NC(=O)[C@H](C)NC(=O)[C@H](CCCCN)NC(=O)[C@H](C)NC(=O)[C@H](CC(C)C)NC(=O)[C@H](CC(C)C)NC(=O)[C@@H](N)CCCCN)C(=O)N[C@@H](CCCCN)C(=O)N[C@@H](C)C(=O)N[C@@H](C)C(N)=O [KLLAKAALKWLLKALKAA]

MIC [8]: > 32 µM
MIC [10]: 16 µM and 32 µM
MIC [4]: > 32 µM
Structure (SMILES): CC(C)C[C@H](NC(=O)[C@H](CCCN=C(N)N)NC(=O)[C@@H](N)CCCN=C(N)N)C(=O)N[C@@H](CCCN=C(N)N)C(=O)N1CCC[C@H]1C(=O)N[C@@H](CCCN=C(N)N)C(=O)N[C@@H](CCCN=C(N)N)C(=O)N1CCC[C@H]1C(=O)N[C@@H](CCCN=C(N)N)C(=O)N[C@@H](CC(C)C)C(=O)N1CCC[C@H]1C(=O)N[C@@H](CCCN=C(N)N)C(=O)N1CCC[C@H]1C(=O)N[C@@H](CCCN=C(N)N)C(=O)N1CCC[C@H]1C(=O)N[C@@H](CCCN=C(N)N)C(=O)O [RRLRPRRPRLPRPRPR]

MIC [6]: 4.1 µM (≈ 8 µg/mL)
MIC [9]: 5.8 µM (≈ 11.3 µg/mL)
MIC [7]: 3 µM (≈ 5.85 µg/mL)
Structure (SMILES): CC(C)C[C@H](NC(=O)[C@H](C)NC(=O)[C@@H](N)CCCCN)C(=O)N[C@@H](C)C(=O)N[C@@H](C)C(=O)N[C@@H](CC(C)C)C(=O)N[C@@H](CC(C)C)C(=O)N[C@@H](CCCCN)C(=O)N[C@@H](CCCCN)C(=O)N[C@@H](Cc1c[nH]c2ccccc12)C(=O)N[C@@H](C)C(=O)N[C@@H](CCCCN)C(=O)N[C@@H](CC(C)C)C(=O)N[C@@H](CC(C)C)C(=O)N[C@@H](C)C(=O)N[C@@H](C)C(=O)N[C@@H](CC(C)C)C(=O)N[C@@H](CCCCN)C(N)=O [KALAALLKKWAKLLAALK]

MIC [11]: ≥ 40 µM
MIC [6]: 100 µM (≈ 161 µg/mL)
Structure (SMILES): CSCC[C@H](NC(=O)[C@H](CCSC)NC(=O)[C@H](CCCCN)NC(=O)[C@H](CCCCN)NC(=O)CNC(=O)[C@H](CC(C)C)NC(=O)[C@H](CCCCN)NC(=O)[C@H](CC(C)C)NC(=O)[C@H](Cc1c[nH]c2ccccc12)NC(=O)[C@H](CC(N)=O)NC(=O)[C@@H](N)CO)C(=O)N[C@@H](CO)C(=O)N[C@@H](C)C(=O)N[C@@H](CC(C)C)C(N)=O [SNWLKLGKKMMSAL]

MIC [11]: 8.5 µM (≈ 15 µg/mL)
MIC [6]: 13 µM (≈ 22.9 µg/mL)
Structure (SMILES): CC[C@H](C)[C@H](N)C(=O)N[C@@H](CC(=O)O)C(=O)N[C@@H](Cc1c[nH]c2ccccc12)C(=O)N[C@@H](CCCCN)C(=O)N[C@@H](CCCCN)C(=O)N[C@H](C(=O)N[C@@H](Cc1ccccc1)C(=O)N[C@@H](CCC(=O)O)C(=O)N[C@@H](CCCCN)C(=O)N[C@H](C(=O)N[C@@H](CCCCN)C(=O)N[C@@H](CC(N)=O)C(=O)N[C@@H](CC(C)C)C(=O)N[C@H](C(N)=O)C(C)C)C(C)C)[C@@H](C)CC [IDWKKIFEKVKNLV]

MIC [11]: 27.2 µM (≈ 52 µg/mL)
MIC [6]: 5.5 µM (≈ 10.5 µg/mL)
Structure (SMILES): CC[C@H](C)[C@H](N)C(=O)N[C@@H](CC(N)=O)C(=O)N[C@@H](Cc1c[nH]c2ccccc12)C(=O)N[C@@H](CCCCN)C(=O)N[C@@H](CCCCN)C(=O)N[C@H](C(=O)N[C@@H](C)C(=O)N[C@@H](CO)C(=O)N[C@H](C(=O)NCC(=O)N[C@@H](CCCCN)C(=O)N[C@@H](CCC(=O)O)C(=O)N[C@H](C(=O)N[C@@H](CC(C)C)C(=O)N[C@@H](CCCCN)C(=O)N[C@@H](C)C(=O)N[C@H](C(N)=O)[C@@H](C)CC)C(C)C)[C@@H](C)CC)[C@@H](C)CC [INWKKIASIGKEVLKAI]

MIC [5]: 40 µM (≈ 108 µg/mL)
MIC [6]: 10 µM (≈ 26.9 µg/mL)
MIC [7]: 20 µM (≈ 53.8 µg/mL)
Structure (SMILES): CC[C@H](C)[C@H](NC(=O)[C@H](CCCCN)NC(=O)[C@H](CS)NC(=O)[C@H](C)NC(=O)[C@@H](NC(=O)[C@H](Cc1ccccc1)NC(=O)CNC(=O)[C@H](CC(C)C)NC(=O)CNC(=O)[C@@H](NC(=O)[C@H](CCCCN)NC(=O)CNC(=O)[C@H](CC(C)C)NC(=O)[C@H](CC(N)=O)NC(=O)[C@H](CCCCN)NC(=O)[C@H](CC(C)C)NC(=O)[C@@H](NC(=O)[C@H](CCCCN)NC(=O)[C@H](CC(C)C)NC(=O)[C@H](CCSC)NC(=O)[C@@H](N)CO)C(C)C)C(C)C)C(C)C)C(=O)N[C@@H](CC(N)=O)C(=O)N[C@@H](CCCCN)C(=O)N[C@@H](CCC(N)=O)C(=O)N[C@@H](CS)C(=O)O [SMLKVLKNLGKVGLGFVACKINKQC]

MIC [12]: ≥ 220 µM
Structure (SMILES): CC[C@H](C)[C@H](NC(=O)[C@H](CO)NC(=O)[C@@H](NC(=O)[C@H](CCCCN)NC(=O)[C@H](Cc1ccccc1)NC(=O)[C@@H]1CCCN1C(=O)[C@@H](N)CCC(=O)O)[C@@H](C)CC)C(=O)N[C@@H](Cc1cnc[nH]1)C(=O)N[C@@H](CC(C)C)C(=O)NCC(=O)NCC(=O)N[C@@H](Cc1ccc(O)cc1)C(N)=O [EPFKISIHLGGY]

MIC [8]: 12.5 µM (≈ 33.1 µg/mL)
MIC [2]: 12.5 µM (≈ 33.1 µg/mL)
MIC [13]: 25 µM (≈ 66.2 µg/mL)
Structure (SMILES): CC[C@H](C)[C@H](NC(=O)[C@H](CCCN=C(N)N)NC(=O)[C@H](C)NC(=O)[C@H](CC(N)=O)NC(=O)[C@H](CCCCN)NC(=O)[C@@H](N)CC(C)C)C(=O)N[C@H](C(=O)NCC(=O)N[C@@H](CCC(=O)O)C(=O)N[C@@H](CC(C)C)C(=O)N[C@H](C(=O)NCC(=O)N[C@@H](Cc1ccccc1)C(=O)N[C@@H](CCCN=C(N)N)C(=O)N1CCC[C@H]1C(=O)N[C@H](C(=O)N[C@@H](CCCN=C(N)N)C(=O)N1CCC[C@H]1C(=O)N[C@@H](CCC(N)=O)C(=O)N[C@H](C(=O)N[C@@H](CCCN=C(N)N)C(=O)N[C@@H](CC(C)C)C(=O)N[C@@H](CCC(=O)O)C(=O)O)C(C)C)C(C)C)[C@@H](C)O)C(C)C [LKNARIVGELTGFRPVRPQVRLE]

MIC [11]: ≥ 100 µM
MIC [6]: 100 µM (≈ 160 µg/mL)
Structure (SMILES): CC[C@H](C)[C@H](N)C(=O)N[C@@H](CC(N)=O)C(=O)N[C@@H](Cc1c[nH]c2ccccc12)C(=O)N[C@@H](CCCCN)C(=O)N[C@@H](CCCCN)C(=O)N[C@H](C(=O)N[C@@H](C)C(=O)N[C@@H](CO)C(=O)N[C@H](C(=O)NCC(=O)N[C@@H](CCCCN)C(=O)N[C@@H](CCC(=O)O)C(=O)N[C@H](C(=O)N[C@@H](CC(C)C)C(N)=O)C(C)C)[C@@H](C)CC)[C@@H](C)CC [INWKKIASIGKEVL]

MIC [8]: 141 µM (≈ 200 µg/mL)
MIC [2]: 70.4 µM (≈ 100 µg/mL)
Structure (SMILES): CSCC[C@H](NC(=O)[C@H](CCCN=C(N)N)NC(=O)[C@H](Cc1c[nH]c2ccccc12)NC(=O)[C@H](CCC(N)=O)NC(=O)[C@H](Cc1c[nH]c2ccccc12)NC(=O)[C@H](CC(C)C)NC(=O)[C@H](CCCN=C(N)N)NC(=O)[C@H](C)NC(=O)[C@H](CCCCN)NC(=O)[C@@H](N)Cc1ccccc1)C(=O)O [FKARLWQWRM]
